Laboratory results: US9855204B1, “Methods and compositions for treating androgenetic alopecia” (priority 2015, dated 2018)

Tests used:
[1] = prior medical use of CEP; cited from earlier work
[2] = test system: Androgenetic Alopecia Males; experiment: Androgenetic Alopecia Males Arm 2, Global Photographic Assessment (Omnia System); type: in vivo, human; conditions: 2 mg once every other day, 6 months, 20 treated
Excerpt: (§1) The description of the experiments and their results are presented in the 4 tables below. In these experiments the subjects self-administered CEP for at least 6 months.

[3] = test system: Androgenic Alopecia Females; experiment: Androgenic Alopecia Females, Global Photographic Assessment (Omnia System); type: in vivo, human; conditions: 2 mg daily, 6 months, 15 treated
Excerpt: as §1

[4] = test system: Androgenetic Alopecia Males; experiment: Androgenetic Alopecia Males Arm 1, Global Photographic Assessment (Omnia System); type: in vivo, human; conditions: 2 mg once daily, 6 months, 20 treated
Excerpt: as §1

[5] = test system: androgenetic alopecia; experiment: CEP in subjects with androgenetic alopecia, overall findings of the experiments; type: in vivo, human; conditions: inferred from benefit in users who skipped daily doses
Excerpt: It is effective when dosed once daily or even once every other day, both of which make compliance much easier than dividing the doses into greater frequency. It is effective without regard to consumption following meals.
as §1
Some users were not perfectly compliant, sometimes skipping their daily doses. […] The expected effective dose range is from about 0.5 mg per day to about 100 mg per day.

[6] = test system: DHT levels; conditions: 1 mg dose taken daily; cited from earlier work
[7] = test system: male pattern baldness; conditions: cited from earlier work

For `COc1ccc2cc1Oc1ccc(cc1)C[C@H]1c3c(cc4c(c3Oc3cc5c(cc3OC)CCN(C)[C@@H]5C2)OCO4)CCN1C` [Cepharanthine], which safety issues [1] is on record?
The safety issues was “No safety issues have been observed”.

And the side effects [1]?
Its side effects is “very rarely reported”.

What about the “number of subjects with score Greatly decreased” value [2] of the same compound?
The value was 0.

And the “number of subjects with score Greatly increased” value [2]?
The value was 0.

What about the “number of subjects with score Moderately decreased” value [2] of the same compound?
The value was 0.

And the “number of subjects with score Moderately increased” value [2]?
Its value is 5.

What about the “number of subjects with score No change” value [2] of the same compound?
The value was 4.

And the “number of subjects with score Slightly decreased” value [2]?
Its value is 2.

What about the “number of subjects with score Slightly increased” value [2] of the same compound?
The value was 9.

What about the “number of subjects with score Greatly decreased” value [3] of the same compound?
Its value is 0.

What about the “number of subjects with score Greatly increased” value [3] of the same compound?
Its value is 1.

What about the “number of subjects with score Moderately decreased” value [3] of the same compound?
The value was 0.

What about the “number of subjects with score Moderately increased” value [3] of the same compound?
The value was 2.

What about the “number of subjects with score No change” value [3] of the same compound?
Its value is 3.

And the “number of subjects with score Slightly decreased” value [3]?
The value was 1.

And the “number of subjects with score Slightly increased” value [3]?
Its value is 8.

And the “number of subjects with score Greatly decreased” value [4]?
The value was 0.

What about the “number of subjects with score Greatly increased” value [4] of the same compound?
Its value is 1.

And the “number of subjects with score Moderately decreased” value [4]?
The value was 0.

What about the “number of subjects with score Moderately increased” value [4] of the same compound?
Its value is 7.

What about the “number of subjects with score No change” value [4] of the same compound?
The value was 3.

What about the “number of subjects with score Slightly decreased” value [4] of the same compound?
The value was 1.

What about the “number of subjects with score Slightly increased” value [4] of the same compound?
Its value is 8.

What about the effective dose [5] of the same compound?
Its effective dose is “about 0.5 mg CEP a day”.

What does the source list for `CC(C)(C)NC(=O)[C@H]1CC[C@H]2[C@@H]3CC[C@H]4NC(=O)C=C[C@]4(C)[C@H]3CC[C@]12C` [finasteride, Finasteride]?
lowering of DHT levels [6]: ≤ 60%; trial participants with substantial increase in hair growth ([7]; clinical trials, men): 65%; men in whom progression of hair loss stopped ([7]; men taking the drug during clinical trials): 86%; men experiencing transient sexual side effects including erectile and libido difficulties ([7]; men): Less than 2%
